The target of series [1] is T1, PI 3-kinase alpha (Homo sapiens, UniProt P42336). Briefly: Cellular assay H1, p-Akt (S473) in Rat-1 cells, Surefire format. To be noted: non-asterisked data: version H1 (Surefire format), Rat-1 cells; read-out: Assay H PI3Kα IC50. The class given is cell-based.
Target sequence in this assay (P42336 whole entry): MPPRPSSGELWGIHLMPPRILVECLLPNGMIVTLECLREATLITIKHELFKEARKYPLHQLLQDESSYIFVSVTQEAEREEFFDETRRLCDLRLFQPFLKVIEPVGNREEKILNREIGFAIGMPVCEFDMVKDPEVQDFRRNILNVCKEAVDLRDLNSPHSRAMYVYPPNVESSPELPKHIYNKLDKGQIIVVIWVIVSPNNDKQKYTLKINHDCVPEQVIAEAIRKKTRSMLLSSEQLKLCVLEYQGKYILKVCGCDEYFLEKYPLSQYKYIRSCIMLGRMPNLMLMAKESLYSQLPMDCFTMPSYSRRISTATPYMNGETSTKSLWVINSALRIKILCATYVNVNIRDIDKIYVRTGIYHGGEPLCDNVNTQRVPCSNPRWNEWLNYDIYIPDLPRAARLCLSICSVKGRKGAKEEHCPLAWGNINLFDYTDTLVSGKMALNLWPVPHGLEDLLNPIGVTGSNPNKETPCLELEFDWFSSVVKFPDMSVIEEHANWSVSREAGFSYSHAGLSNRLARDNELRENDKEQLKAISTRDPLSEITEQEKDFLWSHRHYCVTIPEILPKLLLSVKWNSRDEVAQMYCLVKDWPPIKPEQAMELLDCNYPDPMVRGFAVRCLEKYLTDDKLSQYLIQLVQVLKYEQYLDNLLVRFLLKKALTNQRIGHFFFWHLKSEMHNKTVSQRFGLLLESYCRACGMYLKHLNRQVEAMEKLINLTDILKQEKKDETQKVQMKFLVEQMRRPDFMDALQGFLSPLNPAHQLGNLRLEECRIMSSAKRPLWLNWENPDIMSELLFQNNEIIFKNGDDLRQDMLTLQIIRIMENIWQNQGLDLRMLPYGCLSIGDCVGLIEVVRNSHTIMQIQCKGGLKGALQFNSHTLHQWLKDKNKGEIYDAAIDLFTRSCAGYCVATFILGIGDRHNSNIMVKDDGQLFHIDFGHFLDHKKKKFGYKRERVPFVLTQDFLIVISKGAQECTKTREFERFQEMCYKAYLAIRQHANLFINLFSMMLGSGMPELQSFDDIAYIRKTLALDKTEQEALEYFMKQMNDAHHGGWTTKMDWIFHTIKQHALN
Target sequence in this assay (Q63787 whole entry partner): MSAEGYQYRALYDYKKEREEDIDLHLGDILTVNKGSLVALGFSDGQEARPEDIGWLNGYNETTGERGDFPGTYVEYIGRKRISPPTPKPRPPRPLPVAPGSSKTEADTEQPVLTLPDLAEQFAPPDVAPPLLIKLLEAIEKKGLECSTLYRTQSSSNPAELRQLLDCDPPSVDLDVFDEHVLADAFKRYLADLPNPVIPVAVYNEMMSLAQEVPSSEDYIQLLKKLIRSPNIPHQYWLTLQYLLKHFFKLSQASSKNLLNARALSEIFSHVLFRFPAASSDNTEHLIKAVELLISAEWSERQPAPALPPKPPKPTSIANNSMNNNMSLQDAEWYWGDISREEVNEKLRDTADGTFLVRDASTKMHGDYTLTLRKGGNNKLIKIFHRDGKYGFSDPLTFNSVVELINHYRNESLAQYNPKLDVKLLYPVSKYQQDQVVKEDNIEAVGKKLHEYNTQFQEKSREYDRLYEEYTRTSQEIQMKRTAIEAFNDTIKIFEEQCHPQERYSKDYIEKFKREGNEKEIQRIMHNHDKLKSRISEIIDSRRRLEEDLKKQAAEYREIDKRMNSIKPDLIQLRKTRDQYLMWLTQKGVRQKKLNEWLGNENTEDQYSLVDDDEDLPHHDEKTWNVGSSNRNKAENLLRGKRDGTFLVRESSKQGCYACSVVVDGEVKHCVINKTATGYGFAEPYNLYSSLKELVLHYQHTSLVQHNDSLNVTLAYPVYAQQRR
Excerpt: Cellular Assays for PI 3-Kinase Alpha (H1), Beta (I1) and Delta (J1): Surefire Format
AlphaScreen (Amplified Luminescent Proximity Homogeneous Assay, ALPHA, Perkin Elmer) is a non-radioactive bead-based proximity assay technology to study biomolecular interactions in a homogenous microtiter plate format. The brand name SureFire denotes AlphaScreen assays that are adapted to quantify the phosphorylation of endogenous cellular proteins in cell lysates, by using matched antibody pairs, which consist of an anti-phospho-kinase and an anti-kinase antibody. The assay allows characterization of kinase signaling in cells as well as measurement of kinase inhibitor effects.
Using Rat-1 cells stably expressing myr-HA-tagged versions of the human PI3Kdelta, PI3Kalpha, or PI3Kbeta p110 catalytic subunit isoforms, the assay was developed as a two-plate protocol in a 384-well format.
For compound testing, the cells were seeded at a density of 4000 (Rat-1_PI3Kdelta), 7500 (Rat-1_PI3Kalpha), or 6200 (Rat-1_PI3Kbeta) cells in 20 μl complete growth medium into cell culture treated 384-well plates and were grown at 37° C./5% CO2/90% humidity for 24 h. Shortly before compound transfer, the complete medium was removed, 30 μl assay buffer (DMEM high glucose, 1×MEM NEAA, 10 mM HEPES, 2 mM L-glutamine, 0.1% (w/v) BSA) was added and 10 μl of the compound predilutions were transferred to the cells.
Series [2] addresses PI 4-kinase beta (Homo sapiens, UniProt Q9UBF8). Briefly: Kinase Glo Luminescent Kinase Assay (Kglo), assay D. The class given is biochemical. To be noted: read-out: Assay D PI4Kβ IC50. Background: In Kinase-Glo more light means more ATP remaining.
Description: Kinase Glo Luminescent Kinase Assay (Kglo) for Pb 3-Kinase Alpha (A), Pb 3-Kinase Beta (B), Vps34 (C), Pb 4-Kinase Beta (D)
The Kinase Glo Luminescent Kinase Assay (Promega, Madison/Wis., USA) is a homogeneous HTS method of measuring kinase activity by quantifying the amount of ATP remaining in solution following a kinase reaction.
L-α-phosphatidylinositol (PI), provided as 10 mg/ml solution in methanol, was transferred into a glass tube and dried under a nitrogen beam. It was then resuspended in 3% OctylGlucoside (1-0-n-octyl-beta-D-glucopyranoside) by vortexing and stored at 4° C. 5 μL of a mix of PI/OctylGlucoside with the PI 3-kinase alpha and PI 3-kinase beta subtypes, or Vps34 or PI 4-kinase beta were added. Kinase reactions were started by the addition of 5 μl of an ATP-mix containing in a final volume 10 μL 10 mM TRIS-HCl pH 7.5, 3 mM MgCl2, 50 mM NaCl, 0.05% CHAPS, 1 mM DTT and 1 μM ATP at room temperature.
All fits were performed with the program XLfit4 (ID Business Solutions, Guildford, UK).
The target in series [3] is T2, PI 3-kinase delta (Homo sapiens, UniProt O00329). Description: Cellular assay J1, p-Akt (S473) in Rat-1 cells, Surefire format. The class given is cell-based. To be noted: non-asterisked data: version J1 (Surefire format), Rat-1 cells; read-out: Assay J PI3Kδ IC50.
Series [4] has as its target Vps34 (Homo sapiens, UniProt Q8NEB9). Description: Kinase Glo Luminescent Kinase Assay (Kglo), assay C. The class given is biochemical. To be noted: read-out: Assay C VPS34 IC50.
Series [5] has as its target mTOR (Homo sapiens, UniProt P42345). Briefly: Lanthascreen kinase binding assay, assay G. To be noted: read-out: Assay G mTOR IC50. Background: Time-resolved FRET reads energy transfer from a long-lived donor to a nearby acceptor.
Description: Lanthascreen™ Kinase Binding Assay for mTOR (G)
Binding of an inhibitor to the kinase competes for binding with the tracer, resulting in a loss of FRET.
50 nL of compound dilutions were dispensed onto white 384-well small volume polystyrene plate.
Series [6] deals with T3, PI 3-kinase beta (Homo sapiens, UniProt P42338). Description: Cellular assay I1, p-Akt (S473) in Rat-1 cells, Surefire format. The class given is cell-based. To be noted: non-asterisked data: version I1 (Surefire format), Rat-1 cells; read-out: Assay I PI3Kβ IC50.
Target sequence in this assay (P42338 whole entry): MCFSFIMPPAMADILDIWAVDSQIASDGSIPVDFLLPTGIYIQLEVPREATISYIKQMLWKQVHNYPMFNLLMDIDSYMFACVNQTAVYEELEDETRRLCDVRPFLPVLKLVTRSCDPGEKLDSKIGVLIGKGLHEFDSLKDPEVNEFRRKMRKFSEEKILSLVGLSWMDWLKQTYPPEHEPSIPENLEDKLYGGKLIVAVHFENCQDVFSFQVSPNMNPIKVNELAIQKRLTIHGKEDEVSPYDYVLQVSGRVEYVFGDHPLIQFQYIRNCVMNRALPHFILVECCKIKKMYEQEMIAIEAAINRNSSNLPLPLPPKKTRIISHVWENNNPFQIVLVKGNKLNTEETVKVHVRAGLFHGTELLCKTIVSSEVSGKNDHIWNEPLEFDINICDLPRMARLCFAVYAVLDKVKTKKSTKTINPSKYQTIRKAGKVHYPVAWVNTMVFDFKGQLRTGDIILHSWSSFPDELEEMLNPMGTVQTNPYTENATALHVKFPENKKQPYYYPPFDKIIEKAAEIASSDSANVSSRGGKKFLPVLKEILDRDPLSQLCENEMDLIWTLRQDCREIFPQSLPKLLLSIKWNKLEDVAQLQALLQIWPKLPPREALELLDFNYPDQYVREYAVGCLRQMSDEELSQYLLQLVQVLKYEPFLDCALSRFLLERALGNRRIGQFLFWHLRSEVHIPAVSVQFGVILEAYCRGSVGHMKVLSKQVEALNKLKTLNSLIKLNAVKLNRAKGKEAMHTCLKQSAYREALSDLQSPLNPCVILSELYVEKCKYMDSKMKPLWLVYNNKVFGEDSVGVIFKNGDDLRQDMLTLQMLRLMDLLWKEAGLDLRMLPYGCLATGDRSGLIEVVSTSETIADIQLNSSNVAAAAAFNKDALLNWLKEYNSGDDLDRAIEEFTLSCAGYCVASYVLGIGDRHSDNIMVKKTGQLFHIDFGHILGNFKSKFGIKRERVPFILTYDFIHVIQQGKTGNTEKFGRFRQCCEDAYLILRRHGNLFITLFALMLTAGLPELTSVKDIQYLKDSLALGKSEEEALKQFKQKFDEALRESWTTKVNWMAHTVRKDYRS
Target sequence in this assay (Q63787 whole entry partner): as the sequence (Q63787 whole entry partner) above
Series [7] has as its target T3, PI 3-kinase beta. Briefly: Kinase Glo Luminescent Kinase Assay (Kglo), assay B. To be noted: read-out: Assay B PI3Kβ IC50. The class given is biochemical.
Target sequence in this assay (P42338 whole entry): as the sequence (P42338 whole entry) above
Target sequence in this assay (P27986 461-568 partner): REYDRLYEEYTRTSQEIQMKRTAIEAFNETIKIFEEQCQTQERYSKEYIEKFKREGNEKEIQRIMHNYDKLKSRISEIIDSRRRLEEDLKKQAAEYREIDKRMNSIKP
Series [8] concerns the target T2, PI 3-kinase delta. Briefly: TR-FRET Adapta assay, assay F. To be noted: read-out: Assay F PI3Kδ IC50.
In series [9] the target is T1, PI 3-kinase alpha. Briefly: Kinase Glo Luminescent Kinase Assay (Kglo), assay A. To be noted: read-out: Assay A PI3Kα IC50. The class given is biochemical.
Target sequence in this assay (P42336 whole entry): as the sequence (P42336 whole entry) above
The target of series [10] is PI 3-kinase gamma (Homo sapiens, UniProt P48736). Description: TR-FRET Adapta assay, assay E. To be noted: read-out: Assay E PI3Kγ IC50. The class given is biochemical.
The nature of series [11]: Microsomal clearance assay (M). To be noted: intrinsic clearance in rat liver microsomes. For orientation: Microsomes from liver hold many membrane-bound enzymes, among them those of drug oxidation.
Description: The experiments were performed in 96-well glass plates at 37° C. on an automated Tecan EVO platform. Test compounds at a concentration of 10 mM in pure DMSO were diluted 1:1000 in water to 10 μM. […] Reactions were initiated by the addition of 150 μL of a cofactor solution containing 2 mM NADPH.

Molecules are shown by their SMILES.

Chain of Vps34 (Q8NEB9 whole entry, species assumed): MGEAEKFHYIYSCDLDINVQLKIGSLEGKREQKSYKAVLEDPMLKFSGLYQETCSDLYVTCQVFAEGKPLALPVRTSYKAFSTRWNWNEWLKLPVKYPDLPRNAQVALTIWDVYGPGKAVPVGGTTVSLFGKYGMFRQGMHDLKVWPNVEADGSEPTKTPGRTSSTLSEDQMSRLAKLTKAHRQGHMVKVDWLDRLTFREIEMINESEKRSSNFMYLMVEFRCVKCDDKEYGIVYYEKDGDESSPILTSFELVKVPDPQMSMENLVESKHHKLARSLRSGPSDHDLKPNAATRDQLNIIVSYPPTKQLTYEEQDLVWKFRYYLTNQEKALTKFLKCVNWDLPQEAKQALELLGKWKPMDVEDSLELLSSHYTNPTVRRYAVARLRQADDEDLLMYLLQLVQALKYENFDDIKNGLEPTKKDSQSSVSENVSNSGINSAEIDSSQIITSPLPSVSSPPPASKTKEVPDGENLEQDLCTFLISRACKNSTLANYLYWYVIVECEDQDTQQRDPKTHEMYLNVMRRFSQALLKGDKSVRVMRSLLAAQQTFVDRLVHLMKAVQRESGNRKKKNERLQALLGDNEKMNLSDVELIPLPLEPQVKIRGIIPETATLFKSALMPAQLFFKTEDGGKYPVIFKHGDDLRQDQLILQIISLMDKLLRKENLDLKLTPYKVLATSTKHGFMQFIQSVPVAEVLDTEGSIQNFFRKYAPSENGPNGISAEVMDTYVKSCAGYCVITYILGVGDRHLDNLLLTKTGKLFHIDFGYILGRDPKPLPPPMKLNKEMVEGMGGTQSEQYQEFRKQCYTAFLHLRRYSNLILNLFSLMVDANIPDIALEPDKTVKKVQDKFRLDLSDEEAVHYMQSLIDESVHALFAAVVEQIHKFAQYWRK
Chain of PI 4-kinase beta (Q9UBF8 whole entry): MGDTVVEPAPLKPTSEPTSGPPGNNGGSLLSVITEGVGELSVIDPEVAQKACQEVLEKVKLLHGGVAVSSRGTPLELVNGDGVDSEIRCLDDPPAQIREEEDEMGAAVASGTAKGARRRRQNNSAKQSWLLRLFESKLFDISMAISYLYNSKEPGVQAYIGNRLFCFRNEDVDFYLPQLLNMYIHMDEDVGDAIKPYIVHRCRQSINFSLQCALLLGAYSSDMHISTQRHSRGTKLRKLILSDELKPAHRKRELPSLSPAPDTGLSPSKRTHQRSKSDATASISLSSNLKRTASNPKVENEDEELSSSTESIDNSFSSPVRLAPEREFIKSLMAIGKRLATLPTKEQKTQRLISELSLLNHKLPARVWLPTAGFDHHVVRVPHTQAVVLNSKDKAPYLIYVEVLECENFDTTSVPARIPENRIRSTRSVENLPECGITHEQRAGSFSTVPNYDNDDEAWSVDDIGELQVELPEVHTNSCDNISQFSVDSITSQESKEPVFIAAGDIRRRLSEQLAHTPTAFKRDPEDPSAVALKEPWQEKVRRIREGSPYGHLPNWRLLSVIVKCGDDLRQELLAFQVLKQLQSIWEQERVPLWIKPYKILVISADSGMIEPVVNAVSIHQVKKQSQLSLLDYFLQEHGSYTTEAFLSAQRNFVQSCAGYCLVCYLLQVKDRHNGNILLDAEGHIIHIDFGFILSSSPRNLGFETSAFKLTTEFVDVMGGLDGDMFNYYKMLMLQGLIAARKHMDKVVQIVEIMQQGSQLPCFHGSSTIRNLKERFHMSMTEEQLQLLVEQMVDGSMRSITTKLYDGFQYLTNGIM

As for `Cc1ccc(S(=O)(=O)NC[C@@H]2COCCN2C)cc1-c1cnc(N)c(-c2cn(C)nc2C)n1` (single isomer, unassigned) [Example 128.3a, (R)-3-(5-Amino-6-(1,3-dimethyl-1H-pyrazol-4-yl)pyrazin-2-yl)-4-methyl-N-((4-methylmorpholin-3-yl)methyl)benzenesulfonamide or (S)-3-(5-Amino-6-(1,3-dimethyl-1H-pyrazol-4-yl)pyrazin-2-yl)-4-methyl-N-((4-methylmorpholin-3-yl)methyl)benzenesulfonamide], the IC50 (as a rule, the concentration that gives 50% inhibition) in series [1] was 5.15 µM; in [2], over 10 µM; in series [3], 2.1 µM; in series [4] it was over 10 µM.
For the molecule `Cc1ncc(-c2nc(-c3cc(S(=O)(=O)NCCC(C)(C)O)ccc3C)cnc2N)s1` [Example 119.29], the IC50 amounted to 2.64 µM in series [2]; 0.59 µM in [5]; 9.08 µM in series [6]; 0.92 µM in series [7]; 0.47 µM in series [3]; 0.57 µM in [4]. In addition, the IC50 in series [8] came out at 0.07 µM.
In the case of `Cc1ccc(S(=O)(=O)NCC(C)(C)O)cc1-c1cnc(N)c(-c2cnn(C)n2)n1` [Example 18, 3-[5-Amino-6-(2-methyl-2H-[1,2,3]triazol-4-yl)-pyrazin-2-yl]-N-(2-hydroxy-2-methyl-propyl)-4-methyl-benzenesulfonamide], the IC50 is 8.6 µM in series [2]; 5.55 µM in series [5]; 2.6 µM in series [6]; 2.8 µM in [7]; over 10 µM in series [4].
With `Cc1ncc(-c2nc(-c3cc(S(=O)(=O)NCCCO)ccc3C)cnc2N)s1` [Example 10, 3-(5-Amino-6-(2-methylthiazol-5-yl)pyrazin-2-yl)-N-(3-hydroxypropyl)-4-methylbenzenesulfonamide], the IC50 came to 1.89 µM in series [2]; 1.88 µM in [5]; 6.31 µM in series [6]; 0.89 µM in [7]; 0.6 µM in [3]; 0.21 µM in series [4]. Further, the half-maximal inhibitory concentration (IC50) in series [8] was determined as 0.06 µM.
Regarding `Cc1ncc(-c2nc(-c3cc(S(=O)(=O)NC4CCC(F)(F)CC4)ccc3C)cnc2N)s1` [Example 55, 3-(5-Amino-6-(2-methylthiazol-5-yl)pyrazin-2-yl)-N-(4,4-difluorocyclohexyl)-4-methylbenzenesulfonamide], the IC50 came to 3.74 µM in series [2]; 0.62 µM in [5]; 2.67 µM in series [6]; 0.12 µM in series [7]; 1.24 µM in series [3]; 0.64 µM in series [4]. The 50% inhibitory concentration (IC50) in series [8] stood at 0.03 µM.
For `Cc1ncc(-c2nc(-c3cc(S(=O)(=O)N[C@H]4CC[C@@H](O)CC4)ccc3C)cnc2N)s1` [Example 87, 3-(5-Amino-6-(2-methylthiazol-5-yl)pyrazin-2-yl)-N-((1s,4s)-4-hydroxycyclohexyl)-4-methylbenzenesulfonamide], the IC50 in [2] worked out at 1.57 µM; in series [5], 1.84 µM; in [6], 3.4 µM; in [7], 0.27 µM; in series [3], 1.22 µM; in series [4] it was 0.32 µM. The IC50 in [8] is 0.03 µM.
As for `Cc1ncc(-c2nc(-c3cc(S(=O)(=O)NCC(C)(C)O)ccc3C)cnc2N)s1` [Example 7, 3-(5-Amino-6-(2-methylthiazol-5-yl)pyrazin-2-yl)-N-(2-hydroxy-2-methylpropyl)-4-methylbenzenesulfonamide], the half-inhibitory concentration (IC50) was 1.95 µM in [2]; 0.92 µM in [5]; 3.46 µM in series [6]; 0.99 µM in series [7]; 0.39 µM in series [4].
On to `Cc1ccc(S(=O)(=O)NCC(C)(C)O)cc1-c1cnc(N)c(-n2cncn2)n1` [Example 6, 3-(5-Amino-6-(1H-1,2,4-triazol-1-yl)pyrazin-2-yl)-N-(2-hydroxy-2-methylpropyl)-4-methylbenzenesulfonamide], for which the 50% inhibitory concentration (IC50) was 7.12 µM in series [2]; 9.01 µM in series [5]; 7.28 µM in series [6]; 2.31 µM in [7]; over 9.4 µM in series [4].
As for `Cc1ccc(S(=O)(=O)NCC(C)(C)O)cc1-c1cnc(N)c(-c2nn(C)nc2C)n1` [Example 19, 3-[5-Amino-6-(2,5-dimethyl-2H-[1,2,3]triazol-4-yl)-pyrazin-2-yl]-N-(2-hydroxy-2-methyl-propyl)-4-methyl-benzenesulfonamide], the 50% inhibitory concentration (IC50) came out at 3.85 µM in series [2]; 0.42 µM in series [5]; 0.28 µM in series [6]; 0.14 µM in series [7]; 0.07 µM in series [3]; 0.02 µM in series [8].
As to `Cc1cc(-c2nc(-c3cc(S(=O)(=O)N4CCC(N)CC4)ccc3C)cnc2N)ccn1` [Example 129.41, 5-(5-(4-aminopiperidin-1-ylsulfonyl)-2-methylphenyl)-3-(2-methylpyridin-4-yl)pyrazin-2-amine], the IC50 in [2] is over 9.1 µM; in series [9], 1.6 µM; in series [10], 0.32 µM; in [5], over 9.1 µM; in series [7] it was 4 µM; in series [4], over 9.1 µM. Also, in [8], the IC50 amounted to 2.3 µM. Moreover, the “Assay M RLM CI(int)” value in series [11] came to 13 µL/min/mg.
For the molecule `Cc1ccc(S(=O)(=O)NCC(C)(C)O)cc1-c1cnc(N)c(-c2noc(C3CC3)n2)n1` [Example 91, 3-(5-Amino-6-(5-cyclopropyl-1,2,4-oxadiazol-3-yl)pyrazin-2-yl)-N-(2-hydroxy-2-methylpropyl)-4-methylbenzenesulfonamide], the concentration for half-maximal inhibition (IC50) in [2] is over 9.55 µM; in series [9] it was 2.35 µM; in series [10], 0.27 µM; in series [5], over 9.55 µM; in [7], 2.55 µM; in series [4], over 9.55 µM. Also, the IC50 in series [8] turned out to be 2.1 µM. In addition, the “Assay M RLM CI(int)” value in [11] turned out to be 46 µL/min/mg.
As to `Cc1ncc(-c2nc(-c3cc(S(=O)(=O)N[C@H]4CC[C@H](O)CC4)ccc3C)cnc2N)s1` [Example 14, Trans-3-(5-Amino-6-(2-methylthiazol-5-yl)pyrazin-2-yl)-N-(4-hydroxycyclohexyl)-4-methylbenzenesulfonamide], the half-inhibitory concentration (IC50) came out at 1.57 µM in series [2]; 0.88 µM in series [5]; 1.79 µM in [6]; 0.62 µM in [7]; 0.31 µM in series [3]; 0.42 µM in series [4]. In addition, the IC50 in [8] turned out to be 0.04 µM.
With `Cc1ccc(S(=O)(=O)NC2CC3(CC(O)C3)C2)cc1-c1cnc(N)c(-c2cn(C)nc2C)n1` (stereo not drawn) [Example 74, 3-(5-Amino-6-(1,3-dimethyl-1H-pyrazol-4-yl)pyrazin-2-yl)-N-(6-hydroxyspiro[3.3]heptan-2-yl)-4-methylbenzenesulfonamide], the IC50 is 0.041 µM in series [10]; 3.5 µM in series [5]; over 10 µM in series [6]; 0.83 µM in [7]; 6.86 µM in [3]; over 10 µM in series [4]. Further, the 50% inhibitory concentration (IC50) in series [8] was 0.38 µM. Further, the “Assay M RLM CI(int)” value in series [11] was 30 µL/min/mg.
For `Cc1ccc(S(=O)(=O)NC2CCC(CO)CC2)cc1-c1cnc(N)c(-n2cncn2)n1` (stereo not drawn) [Example 127.6], the IC50 in [2] was over 10 µM; in series [9] it was 0.39 µM; in series [10], 0.16 µM; in [5] it was over 10 µM; in series [7], 2.2 µM; in series [4] it was over 10 µM. In addition, the IC50 in [8] was found to be 1.5 µM. The “Assay M RLM CI(int)” value in series [11] was determined as 20 µL/min/mg.
Take `Cc1cc(-c2nc(-c3cc(S(=O)(=O)NC[C@H](C)O)ccc3C)cnc2N)ccn1` [Example 129.9, (S)-3-(5-amino-6-(2-methylpyridin-4-yl)pyrazin-2-yl)-N-(2-hydroxypropyl)-4-methylbenzenesulfonamide]: the IC50 in series [2] is over 9.1 µM; in series [9] it was 0.42 µM; in [10], 0.045 µM; in series [5], over 9.1 µM; in [7], 6.9 µM; in [4] it was over 9.1 µM. Moreover, the half-inhibitory concentration (IC50) in [8] turned out to be 0.94 µM. In [11], the “Assay M RLM CI(int)” value is 20 µL/min/mg.
In the case of `Cc1ccc(S(=O)(=O)N2CC3(CC(O)C3)C2)cc1-c1cnc(N)c(-n2cncn2)n1` [Example 101, 2-(3-(5-Amino-6-(1H-1,2,4-triazol-1-yl)pyrazin-2-yl)-4-methylphenylsulfonyl)-2-azaspiro[3.3]heptan-6-ol], the half-maximal inhibitory concentration (IC50) in series [2] was 2.4 µM; in [9], 2 µM; in [10], 0.21 µM; in series [5] it was over 10 µM; in [7], 1.7 µM; in series [4], over 10 µM. Moreover, in series [8], the half-maximal inhibitory concentration (IC50) stood at 3 µM. The “Assay M RLM CI(int)” value in [11] is 39 µL/min/mg.

Source of the values: patent US10004732B2 (Novartis AG, priority 2014, dated 2018).
